These are literature values, as cited in patent publication US7842280B2, “Flexibly labeling peptides” (Case Western Reserve University, priority 2006, dated 2010).

For the data set the following is noted: Gd^3+-DOTA used in clinical MRI studies; comparison value; cited from earlier work.

Regarding `O=C([O-])CN1CCN(CC(=O)[O-])CCN(CC(=O)[O-])CCN(CC(=O)[O-])CC1.[Gd+3]` [Gd^3+-DOTA], the relaxivity is listed as 3.83 m mM^−1 sec^−1.
